For this assay, the system named is MV-4-11 cells. Put plainly: Gene expression microarray analysis (Affymetrix PrimeView) and GSEA. The assay is classed as cell-based, human. Further details: RFU PODN (11730768_x_at) / Fold change /veh PODN (11730768_x_at) / RFU LINC00158 (11744669_a_at) / Fold change /veh LINC00158 (11744669_a_at) / RFU DUSP10 (11751237_a_at) / Fold change /veh DUSP10 (11751237_a_at) / RFU ID3 (11757404_x_at) / Fold change /veh ID3 (11757404_x_at) / RFU PLEKHG5 (11737974_s_at) / Fold change /veh PLEKHG5 (11737974_s_at) / RFU LRRC4B (11730491_at) / Fold change /veh LRRC4B (11730491_at) / RFU GIMAP4 (11747438_a_at) / Fold change /veh GIMAP4 (11747438_a_at) / RFU KRT8 (11758183_x_at) / Fold change /veh KRT8 (11758183_x_at) / RFU CNN1 (11734310_a_at) / Fold change /veh CNN1 (11734310_a_at) / RFU VPS37D (11726825_at) / Fold change /veh VPS37D (11726825_at) / RFU C10orf10 (11716522_x_at) / Fold change /veh C10orf10 (11716522_x_at) / RFU KIR2DL2 /// KIR2DL4 /// KIR2DL5A /// KIR2DL5B /// KIR2DS1 /// KIR2DS2 /// KIR2DS3 /// KIR2DS4 /// KIR3DL3 /// KIR3DL3 /// KIR3DS1 (11738374_at) / Fold change /veh KIR2DL2 /// KIR2DL4 /// KIR2DL5A /// KIR2DL5B /// KIR2DS1 /// KIR2DS2 /// KIR2DS3 /// KIR2DS4 /// KIR3DL3 /// KIR3DL3 /// KIR3DS1 (11738374_at) / RFU C1QL1 (11718748_at) / Fold change /veh C1QL1 (11718748_at) / RFU TMPRSS4 (11747572_a_at) / Fold change /veh TMPRSS4 (11747572_a_at) / RFU HAMP (11756126_x_at) / Fold change /veh HAMP (11756126_x_at) / RFU RNFT2 (11725882_a_at) / Fold change /veh RNFT2 (11725882_a_at) / RFU NR4A2 (11747474_a_at) / Fold change /veh NR4A2 (11747474_a_at) / RFU ABCC12 (11746883_a_at) / Fold change /veh ABCC12 (11746883_a_at) / RFU TMEM136 (11760407_x_at) / Fold change /veh TMEM136 (11760407_x_at) / RFU CLDN22 /// WWC2 (11732394_at) / Fold change /veh CLDN22 /// WWC2 (11732394_at) / RFU HLA-DPB1 (11760878_x_at) / Fold change /veh HLA-DPB1 (11760878_x_at) / RFU SPINT1 (11716480_a_at) / Fold change /veh SPINT1 (11716480_a_at) / RFU GAP43 (11754022_s_at) / Fold change /veh GAP43 (11754022_s_at) / RFU A4GNT (11735810_at) / Fold change /veh A4GNT (11735810_at) / RFU PRB3 (11715151_x_at) / Fold change /veh PRB3 (11715151_x_at) / RFU TUBB4B (11761932_at) / Fold change /veh TUBB4B (11761932_at) / RFU CAPN14 (11732068_a_at) / Fold change /veh CAPN14 (11732068_a_at) / RFU TMCC2 (11721928_a_at) / Fold change /veh TMCC2 (11721928_a_at) / RFU IRGQ (11745062_a_at) / Fold change /veh IRGQ (11745062_a_at) / RFU FAM174B (11720279_a_at) / Fold change /veh FAM174B (11720279_a_at) / RFU TMPRSS4 (11748680_a_at) / Fold change /veh TMPRSS4 (11748680_a_at) / RFU FAM212B (11763350_a_at) / Fold change /veh FAM212B (11763350_a_at) / RFU PLEKHG5 (11743358_a_at) / Fold change /veh PLEKHG5 (11743358_a_at) / RFU ZSCAN30 (11745921_a_at) / Fold change /veh ZSCAN30 (11745921_a_at) / RFU CMKLR1 (11741424_a_at) / Fold change /veh CMKLR1 (11741424_a_at) / RFU LOC101060620 /// MAPK8IP1 (11723275_at) / Fold change /veh LOC101060620 /// MAPK8IP1 (11723275_at) / RFU SPTSSB (11747773_x_at) / Fold change /veh SPTSSB (11747773_x_at) / RFU PRSS12 (11739890_at) / Fold change /veh PRSS12 (11739890_at) / RFU BIN1 (11741810_x_at) / Fold change /veh BIN1 (11741810_x_at) / RFU WNT11 (11732464_a_at) / Fold change /veh WNT11 (11732464_a_at) / RFU C10orf10 (11716521_a_at) / Fold change /veh C10orf10 (11716521_a_at) / RFU C5orf56 (11738089_at) / Fold change /veh C5orf56 (11738089_at) / RFU CYB561 (11721691_x_at) / Fold change /veh CYB561 (11721691_x_at) / RFU ANKRD19P (11752326_a_at) / Fold change /veh ANKRD19P (11752326_a_at) / RFU OR2T12 /// OR2T33 /// OR2T8 (11738714_s_at) / Fold change /veh OR2T12 /// OR2T33 /// OR2T8 (11738714_s_at) / RFU VCAN (11748164_a_at) / Fold change /veh VCAN (11748164_a_at) / RFU JSRP1 (11732532_at) / Fold change /veh JSRP1 (11732532_at) / RFU KRTAP10-11 (11738290_x_at) / Fold change /veh KRTAP10-11 (11738290_x_at) / RFU MYO3A (11730013_a_at) / Fold change /veh MYO3A (11730013_a_at) / RFU EBF3 (11725865_a_at) / Fold change /veh EBF3 (11725865_a_at) / RFU CAMK2N1 (11719241_x_at) / Fold change /veh CAMK2N1 (11719241_x_at) / RFU C5orf56 (11738088_a_at) / Fold change /veh C5orf56 (11738088_a_at) / RFU OLFML3 (11715873_a_at) / Fold change /veh OLFML3 (11715873_a_at) / RFU LOC100653217 /// NTM (11731650_a_at) / Fold change /veh LOC100653217 /// NTM (11731650_a_at) / RFU MAPK11 (11762145_a_at) / Fold change /veh MAPK11 (11762145_a_at) / RFU FIZ1 (11724087_x_at) / Fold change /veh FIZ1 (11724087_x_at) / RFU OASL (11726364_x_at) / Fold change /veh OASL (11726364_x_at) / RFU SOX15 (11748057_x_at) / Fold change /veh SOX15 (11748057_x_at) / RFU CD79A (11719716_a_at) / Fold change /veh CD79A (11719716_a_at) / RFU HIST1H1D (11736915_at) / Fold change /veh HIST1H1D (11736915_at) / RFU CASKIN2 (11723855_a_at) / Fold change /veh CASKIN2 (11723855_a_at) / RFU LOC730098 (11760151_x_at) / Fold change /veh LOC730098 (11760151_x_at) / RFU OR4N2 (11742367_at) / Fold change /veh OR4N2 (11742367_at) / RFU PRRT2 (11749266_a_at) / Fold change /veh PRRT2 (11749266_a_at) / RFU SNX32 (11753110_a_at) / Fold change /veh SNX32 (11753110_a_at) / RFU CDHR5 (11726645_a_at) / Fold change /veh CDHR5 (11726645_a_at) / RFU RCAN1 (11760418_a_at) / Fold change /veh RCAN1 (11760418_a_at) / RFU FAM167A (11723789_a_at) / Fold change /veh FAM167A (11723789_a_at) / RFU FAM26E (11764081_at) / Fold change /veh FAM26E (11764081_at) / RFU ISYNA1 (11749810_s_at) / Fold change /veh ISYNA1 (11749810_s_at) / RFU ACY1 (11761880_at) / Fold change /veh ACY1 (11761880_at) / RFU 11764098_at / Fold change /veh 11764098_at / RFU SAMD14 (11745864_x_at) / Fold change /veh SAMD14 (11745864_x_at) / RFU NPB (11741838_a_at) / Fold change /veh NPB (11741838_a_at) / RFU TMPRSS6 (11731388_a_at) / Fold change /veh TMPRSS6 (11731388_a_at) / RFU KRTAP10-2 (11738614_at) / Fold change /veh KRTAP10-2 (11738614_at) / RFU ARHGAP8 /// PRR5-ARHGAP8 (11727945_x_at) / Fold change /veh ARHGAP8 /// PRR5-ARHGAP8 (11727945_x_at) / RFU KRTAP5-7 /// NADSYN1 (11734609_at) / Fold change /veh KRTAP5-7 /// NADSYN1 (11734609_at) / RFU RASL12 (11751679_a_at) / Fold change /veh RASL12 (11751679_a_at) / RFU CDKN2B (11736163_a_at) / Fold change /veh CDKN2B (11736163_a_at) / RFU PRF1 (11729649_at) / Fold change /veh PRF1 (11729649_at) / RFU, ZNF638 /// ZNF638-IT1 / Fold change vs veh, ZNF638 /// ZNF638-IT1 / RFU, PANK3 / Fold change vs veh, PANK3 / RFU, SH3YL1 / Fold change vs veh, SH3YL1 / RFU, ZEB2 / Fold change vs veh, ZEB2 / RFU, NRIP1 / Fold change vs veh, NRIP1 / RFU, PTTG1IP / Fold change vs veh, PTTG1IP / RFU, CAPN2 / Fold change vs veh, CAPN2 / RFU, MED14 / Fold change vs veh, MED14 / RFU, SNORA58 / Fold change vs veh, SNORA58 / RFU, C1orf63 / Fold change vs veh, C1orf63 / RFU, LRRFIP1 / Fold change vs veh, LRRFIP1 / RFU, NDUFAF7 / Fold change vs veh, NDUFAF7 / RFU, SLC12A2 / Fold change vs veh, SLC12A2 / RFU, IBTK / Fold change vs veh, IBTK / RFU, ESF1 / Fold change vs veh, ESF1 / Fold change vs veh, TMEM50B / RFU, TAOK1 / Fold change vs veh, TAOK1 / RFU, ACBD3 / Fold change vs veh, ACBD3 / RFU, TMA16 / Fold change vs veh, TMA16 / RFU, RWDD3 / Fold change vs veh, RWDD3 / RFU, BCAT1 / Fold change vs veh, BCAT1 / RFU, EDEM3 / Fold change vs veh, EDEM3 / RFU, TMEM33 / Fold change vs veh, TMEM33 / RFU, WDR75 / Fold change vs veh, WDR75 / RFU, AHCTF1 / Fold change vs veh, AHCTF1 / RFU, TFRC / Fold change vs veh, TFRC / RFU, ZDHHC17 / Fold change vs veh, ZDHHC17 / RFU, NOM1 / Fold change vs veh, NOM1 / RFU, ARL8B / Fold change vs veh, ARL8B / RFU, ZBTB11 / Fold change vs veh, ZBTB11 / RFU, TAMM41 / Fold change vs veh, TAMM41 / RFU, KIAA1704 /// LOC100996395 / Fold change vs veh, KIAA1704 /// LOC100996395 / RFU, ING1 / Fold change vs veh, ING1 / RFU, TRMT61B / Fold change vs veh, TRMT61B / RFU, FUBP3 / Fold change vs veh, FUBP3 / RFU, TP53 / Fold change vs veh, TP53 / RFU, TNKS2 / Fold change vs veh, TNKS2 / RFU, ZFP14 / Fold change vs veh, ZFP14 / RFU, ACTR2 / Fold change vs veh, ACTR2 / RFU, PPP3R1 / Fold change vs veh, PPP3R1 / RFU, PIK3R1 / Fold change vs veh, PIK3R1 / RFU, HNRNPA1 / Fold change vs veh, HNRNPA1 / RFU, RNF170 / Fold change vs veh, RNF170 / RFU, ZNF28 / Fold change vs veh, ZNF28 / RFU, RNGTT / Fold change vs veh, RNGTT / RFU, OGT / Fold change vs veh, OGT / RFU, BRD1 / Fold change vs veh, BRD1 / RFU, MARS / Fold change vs veh, MARS / RFU, ZNF655 / Fold change vs veh, ZNF655 / RFU, FAHD1 / Fold change vs veh, FAHD1 / RFU, BDP1 / Fold change vs veh, BDP1 / RFU, LRRCC1 / Fold change vs veh, LRRCC1 / RFU, ARID1A / Fold change vs veh, ARID1A / RFU, ZNF146 / Fold change vs veh, ZNF146 / RFU, ZNF330 / Fold change vs veh, ZNF330 / RFU, GPN3 / Fold change vs veh, GPN3 / RFU, C9orf123 / Fold change vs veh, C9orf123 / RFU, N4BP2L2 / Fold change vs veh, N4BP2L2 / RFU, ARFIP1 / Fold change vs veh, ARFIP1 / RFU, FAM179B / Fold change vs veh, FAM179B / RFU, BCL10 / Fold change vs veh, BCL10 / RFU, UHRF1BP1L / Fold change vs veh, UHRF1BP1L / RFU, BET1 / Fold change vs veh, BET1 / RFU, CNOT2 / Fold change vs veh, CNOT2 / RFU, ZNF268 / Fold change vs veh, ZNF268 / Fold change vs veh, ZNF507 / RFU, DGCR2 / Fold change vs veh, DGCR2 / RFU, WDSUB1 / Fold change vs veh, WDSUB1 / Fold change vs veh, HSP90B1 /// MIR3652 / RFU, ADSS / Fold change vs veh, ADSS / RFU, GK / Fold change vs veh, GK / RFU, ZNF148 / Fold change vs veh, ZNF148 / RFU, TAF9 / Fold change vs veh, TAF9 / RFU, SLC1A5 / Fold change vs veh, SLC1A5 / RFU, SLMO2 / Fold change vs veh, SLMO2 / RFU, ABCC4 / Fold change vs veh, ABCC4 / RFU, LOC101060439 /// RAP1B / Fold change vs veh, LOC101060439 /// RAP1B / RFU, RFX7 / Fold change vs veh, RFX7 / RFU, GTPBP10 / Fold change vs veh, GTPBP10 / RFU, CNEP1R1 / Fold change vs veh, CNEP1R1 / RFU, BIVM-ERCC5 /// ERCC5 / Fold change vs veh, BIVM-ERCC5 /// ERCC5 / RFU, ILF3 / Fold change vs veh, ILF3 / RFU 11762660_at / Fold change /veh 11762660_at / RFU VCAN (11757783_s_at) / Fold change /veh VCAN (11757783_s_at) / RFU DDX43 (11728927_at) / Fold change /veh DDX43 (11728927_at) / RFU KRT8 (11758188_x_at) / Fold change /veh KRT8 (11758188_x_at) / RFU NKD1 (11759106_at) / Fold change /veh NKD1 (11759106_at) / RFU SRD5A1 (11742802_a_at) / Fold change /veh SRD5A1 (11742802_a_at) / RFU TPSAB1 /// TPSB2 (11721975_s_at) / Fold change /veh TPSAB1 /// TPSB2 (11721975_s_at) / RFU GSTM3 (11746129_a_at) / Fold change /veh GSTM3 (11746129_a_at) / RFU IL23R (11737362_x_at) / Fold change /veh IL23R (11737362_x_at) / RFU TMEM51 (11727254_a_at) / Fold change /veh TMEM51 (11727254_a_at) / RFU PIWIL2 (11732686_x_at) / Fold change /veh PIWIL2 (11732686_x_at) / RFU ORM1 (11744905_x_at) / Fold change /veh ORM1 (11744905_x_at) / RFU CCDC152 (11743942_at) / Fold change /veh CCDC152 (11743942_at) / RFU ECM1 (11717891_a_at) / Fold change /veh ECM1 (11717891_a_at) / RFU IL23R (11748794_a_at) / Fold change /veh IL23R (11748794_a_at) / RFU TNFAIP8L3 (11732012_x_at) / Fold change /veh TNFAIP8L3 (11732012_x_at) / RFU MBOAT4 (11741988_at) / Fold change /veh MBOAT4 (11741988_at) / RFU 11764193_at / Fold change /veh 11764193_at / RFU TMEM53 (11763286_at) / Fold change /veh TMEM53 (11763286_at) / RFU MAGEB2 (11727129_at) / Fold change /veh MAGEB2 (11727129_at) / RFU TMEM200A (11744735_a_at) / Fold change /veh TMEM200A (11744735_a_at) / RFU CCDC152 (11751479_a_at) / Fold change /veh CCDC152 (11751479_a_at) / RFU FAM211A (11726209_a_at) / Fold change /veh FAM211A (11726209_a_at) / RFU RGS16 (11746705_a_at) / Fold change /veh RGS16 (11746705_a_at) / RFU VCAN (11755009_s_at) / Fold change /veh VCAN (11755009_s_at) / RFU RHOB (11743442_s_at) / Fold change /veh RHOB (11743442_s_at) / RFU RGS16 (11720943_a_at) / Fold change /veh RGS16 (11720943_a_at) / RFU RGS16 (11720944_at) / Fold change /veh RGS16 (11720944_at) / RFU, VPS4B / Fold change vs veh, VPS4B / RFU, CREB1 / Fold change vs veh, CREB1 / RFU, DNAJC13 / Fold change vs veh, DNAJC13 / RFU, GNAQ / Fold change vs veh, GNAQ / RFU, CDK5R1 / Fold change vs veh, CDK5R1 / RFU, ZRANB3 / Fold change vs veh, ZRANB3 / RFU, CUL4A / Fold change vs veh, CUL4A / RFU, CCNY / Fold change vs veh, CCNY / RFU, UFL1 / Fold change vs veh, UFL1 / RFU, COG3 / Fold change vs veh, COG3 / RFU, DIAPH2 / Fold change vs veh, DIAPH2 / RFU, SKA2 / Fold change vs veh, SKA2 / RFU, AFF3 / Fold change vs veh, AFF3 / RFU, LMF1 / Fold change vs veh, LMF1 / RFU, IPO11 / Fold change vs veh, IPO11 / RFU, DFFB / Fold change vs veh, DFFB / RFU, FOXP1 / Fold change vs veh, FOXP1 / RFU, CARD8 / Fold change vs veh, CARD8 / RFU, STRN3 / Fold change vs veh, STRN3 / RFU, ADK / Fold change vs veh, ADK / RFU, RASSF2 / Fold change vs veh, RASSF2 / RFU, WIPF1 / Fold change vs veh, WIPF1 / RFU, LARP1B / Fold change vs veh, LARP1B / RFU, RASA1 / Fold change vs veh, RASA1 / RFU, RB1 / Fold change vs veh, RB1 / RFU, PPFIA1 / Fold change vs veh, PPFIA1 / RFU, MAT2A / Fold change vs veh, MAT2A / RFU, CCT5 / Fold change vs veh, CCT5 / RFU, WDR92 / Fold change vs veh, WDR92 / RFU, CUX1 / Fold change vs veh, CUX1 / RFU, TTC7A / Fold change vs veh, TTC7A / RFU, TMEM135 / Fold change vs veh, TMEM135 / RFU, DEPTOR / Fold change vs veh, DEPTOR / RFU, CPM / Fold change vs veh, CPM / RFU, DNAJB6 / Fold change vs veh, DNAJB6 / RFU, CACNA2D3 / Fold change vs veh, CACNA2D3 / RFU, DTX4 / Fold change vs veh, DTX4 / RFU, TFCP2 / Fold change vs veh, TFCP2 / RFU, GMCL1 /// GMCL1P1 / Fold change vs veh, GMCL1 /// GMCL1P1 / RFU, AEBP2 / Fold change vs veh, AEBP2 / RFU, SNHG1 /// SNORD22 /// SNORD25 /// SNORD26 /// SNORD27 /// SNORD28 /// SNORD29 /// SNORD31 / Fold change vs veh, SNHG1 /// SNORD22 /// SNORD25 /// SNORD26 /// SNORD27 /// SNORD28 /// SNORD29 /// SNORD31 / Fold change (Aza/veh), C12orf56 (ProbeSet 11735607_a_at) / Fold change (ACY-1035/veh), C12orf56 (ProbeSet 11735607_a_at) / Fold change (Aza/veh), FGFR1OP (ProbeSet 11751329_s_at) / Fold change (ACY-1035/veh), FGFR1OP (ProbeSet 11751329_s_at) / Fold change (Aza/veh), VPS36 (ProbeSet 11739960_a_at) / Fold change (ACY-1035/veh), VPS36 (ProbeSet 11739960_a_at) / RFU SYPL1 (11715823_x_at) / Fold change /veh SYPL1 (11715823_x_at) / RFU IGFBP7 (11715501_s_at) / Fold change /veh IGFBP7 (11715501_s_at) / RFU REEP3 (11722064_at) / Fold change /veh REEP3 (11722064_at) / RFU IGLL1 (11728026_x_at) / Fold change /veh IGLL1 (11728026_x_at): dose or concentration left out as unconfirmed. Conditions: MV-4-11 cells, 48 hours.

Each structure is given as a SMILES string.

In the case of `Nc1ccc(-c2cccs2)cc1NC(=O)c1ccc2c(c1)cc(C1CC1)n2CCN1CCOCC1` [ACY-1035], the “Fold change /veh C10orf10 (11716521_a_at)” value was found to be 0.91.
